US10259792B2, “Crystal of uracil compound” (priority 2015, dated 2019)

Key:
[1] = Blood concentration measurement test (oral administration to mice); format: in vivo; settings: 0.5% HPMC suspension, 50 mg/10 mL/kg, fed Balb/cA mice, compound (1) in plasma by LC-MS/MS
Experimental: A 0.5% HPMC dosing suspension (50 mg/10 mL/kg) of each of crystal I and crystal II was prepared. These suspensions were orally administered to mice (Balb/cA), which had been reared under feeding conditions, in a volume of 10 mL per kg body weight using an oral gavage tube. After administration, mice were returned to the mouse cage, and their conditions were checked. In the cage, water and feed were available ad libitum. At 0.5, 1, 2, 4, 6, and 8 hours after administration, mice were anesthetized with isoflurane, and 60 μL of blood was collected from the orbital venous plexus using a capillary blood collecting tube. The collected blood was ice-cooled, and centrifuged to separate plasma. The mice after blood collection were returned to the animal rearing cage, and their conditions after recovering from anesthesia were checked. After the final blood collection, the depth of isoflurane anesthesia was checked, and then the mice were euthanized by cervical dislocation.
From the concentrations of compound (1) in plasma measured by MRM method using LC-MS/MS, AUC0-24 hr was calculated by log-linear trapezoidal method using Phoenix WinNonlin (v6.3.0), software manufactured by Pharsight.

[2] = Solid stability test (under light exposure); format: physicochemical; settings: for Change of chemical purity / Change of crystal form by powder X-ray crystallography: 1 month under light exposure; for Chemical purity, Initial value / Chemical purity, One month later: HPLC; for Chemical purity, Initial value: before storage; for Chemical purity, One month later: stored 1 month under light exposure in clear glass bottle
Experimental: The solid stabilities of crystal I and crystal II obtained in the Examples, when stored for 1 month under light exposure, were measured under the following conditions.
Storage condition: Sample was placed in a transparent glass bottle, then the lid was placed, and the grove between the lid and the bottle was sealed by the grafting tape.
Measurement point: 1 Month
Stored amount: About 30 mg
Storage container: Clear glass bottle
Chemical purity of compound (1) in the sample solution was measured by HPLC analysis. The apparatuses, including the apparatus for data processing, were handled according to the processes and procedures instructed for the apparatuses. (Apparatus: Shimadzu Corporation LC-20AB)
Column: L-column 2 ODS manufactured by Chemicals Evaluation and Research Institute, 4.6×150 mm, 5 μm
Column temperature: 50° C.
Column flow rate: 1.0 mL/min
Mobile phase: A; Water, B; Acetonitrile
Sample concentration: 1.0 mg/mL

SMILES	AUC(0-t) ([1]; Balb/cA, mouse, plasma, po, 50 mg/kg, read-out: AUC0-24 hr)	Change of chemical purity [2]	Change of crystal form by powder X-ray crystallography [2]	Chemical purity, Initial value [2]	Chemical purity, One month later [2]	AUC0-24 hr [1]
C[C@@H](NS(=O)(=O)CCCOCn1ccc(=O)[nH]c1=O)c1cccc(OC2CCCC2)c1 [Crystal I, (R)—N-(1-(3-(cyclopentyloxy)phenyl)ethyl)-3-((2,4-dioxo-3,4-dihydropyrimidin-1(2H)-yl)methoxy)propane-1-sulfonamide]	122 µM·h	did not change	no change of crystal form	97.8%	97.4%	–
C[C@@H](NS(=O)(=O)CCCOCn1ccc(=O)[nH]c1=O)c1cccc(OC2CCCC2)c1 [Crystal II, (R)—N-(1-(3-(cyclopentyloxy)phenyl)ethyl)-3-((2,4-dioxo-3,4-dihydropyrimidin-1(2H)-yl)methoxy)propane-1-sulfonamide]	–	did not change	no change of crystal form	99.0%	99.1%	144.51 µM·h
